# Structures can show the parent of a compound that is named as a salt. Where two headings read alike, the source gives them in different places.
# Experiments:
# Assay type in all cases: physicochemical
# [1] = Overall rank order of powder flowability (angle of repose and Hausner ratio); conditions: for Powder flowability, overall (in words): angle of repose and compressibility index/Hausner ratio combined
# Source text: Table C5 was generated by adding the relative rank order of the 25HC3S salts for angle of repose and Hausner ratio results, and creating an Over All Rank Order of the salts powder flowability. The salts with the lower overall rank order score had better powder flowability.
# [2] = Hausner ratio and compressibility index of 25HC3S salts
# Outline: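 Powder poured into a 5 mL graduated cylinder to about 5.0 mL (Vo), tapped 200 then 100 more times on a hard surface; final volume Vf recorded after 300 taps. Compressibility index and Hausner ratio calculated from Vo and Vf; flow character classed per USP <1174>.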
# [3] = Appearance (color, clumping, flowability) of stored 25HC3S salts; conditions: 2-8° C.
# [4] = Final pH of the solubility sample solutions in aqueous media
# Outline: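 Undiluted HPLC assay of centrifuged (12000 rpm, 12–15 min) supernatants from aqueous 25HC3S salt suspensions. These suspensions were kept with excess solid and shaken one day at room temperature, 210 motions/min.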
# [5] = Solubility of 25HC3S salts after one day at room temperature (HPLC, as free acid); conditions: one day
# Outline: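 HPLC quantified the clear supernatant after centrifugation, with organic-solvent samples diluted in water:MeOH 95:5 and aqueous ones undiluted; results are mg/mL as free acid (LOD 0.0007 mg/mL). Each salt was first equilibrated as a suspension with excess solid for one day on a room-temperature shaker.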
# [6] = Solid-state chemical stability of 25HC3S salts at 2-8° C., 60° C. and 80° C. (HPLC assay and degradation products); conditions: for % Impurities, Total / % Impurities, 25-HC: ND = Not Detected; for Overall physical and chemical stability (in words): 60° C.; for % Impurities, 25-HC: 25-Hydroxy-Cholesterol
# Outline: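 Crystalline 25HC3S salts (~25 mg powder per vial) stored at 2-8° C. or 80° C., pulled at 3 and 6 weeks; some 3-week 2-8° C. vials moved to 60° C. for 1 week. Dissolved in 100% methanol (sonication/vortexing, centrifugation or dilution), then HPLC against 25HC3S sodium standards (0.75-1.25 mg/mL) for assay and degradants.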
smiles,measurement,setting,value
C[C@H](CCCC(C)(C)O)[C@H]1CC[C@H]2[C@@H]3CC=C4C[C@@H](OS(=O)(=O)O)CC[C@]4(C)[C@H]3CC[C@]12C [Salt #14],"Powder flowability, overall (in words)",[1]; listed as crystalline 25HC3S lysine,relatively good flowability
same,"Powder flowability, overall (in words)",[1]; listed as lysine,top three
same,Angle of Repose Rank Order,"[1]; rank, lower is better flow",2
same,Hausner Ratio Rank Order,"[1]; rank, lower is better flow",2
same,Overall Rank Order (Total Score),"[1]; sum of both ranks, lower is better flow",4
same,Hausner Ratio,[2],1.32
same,Compressibility Index,[2]; Table C3 heads this index in %,24
same,Appearance,[3]; 3 wk,"White, free flowing powder with clumping"
same,Appearance,[3]; 5 wk,"White, free flowing powder with clumping"
same,"pH of the solubility sample, 0.9% Sodium Chloride",[4]; 0.9% sodium chloride (blank 5.8),8.4
same,"pH of the solubility sample, 5% Dextrose",[4]; 5% dextrose (blank 4.7),7.5
same,pH of solubility sample solution in 5% dextrose,[4]; 5% dextrose (medium pH 4.7),7.5
same,"pH of the solubility sample, FaSSGF","[4]; FaSSGF (blank 1.5, 1.6)",1.6
same,"pH of the solubility sample, FaSSIF","[4]; FaSSIF (blank 6.5, 6.5)",6.5
same,"pH of the solubility sample, FeSSIF","[4]; FeSSIF (blank 4.9, 5.0)",5.0
same,"pH of the solubility sample, Water",[4]; water (blank 6.3),8.8
same,solubility at 24 h,"[5]; 0.9% nacl, room temperature, as free acid, ND = not detected, detection limit 0.7 μg/mL, read-out: Solubility in 0.9% NaCl",0.008 mg/mL
same,solubility at 24 h,"[5]; 5% dextrose, room temperature, as free acid, ND = not detected, detection limit 0.7 μg/mL, read-out: Solubility in 5% Dextrose",0.038 mg/mL
same,Solubility in FaSSGF (in words),"[5]; FaSSGF, room temperature",low solubility
same,Solubility in FaSSGF,"[5]; Fasted State Simulated Gastric Fluid, pH 1.6, room temperature, as free acid, LOD 0.0007 mg/mL",no solubilized drug was detected
same,solubility at 24 h,"[5]; acetonitrile, organic solvent or mixture, acetonitrile, room temperature, as free acid, read-out: Solubility in ACN",0.8 mg/mL
same,solubility at 24 h,"[5]; ethanol, organic solvent or mixture, ethanol, room temperature, as free acid, ≥ = did not reach saturation, read-out: Solubility in EtOH",1.7 mg/mL
same,solubility at 24 h,"[5]; fassif, room temperature, as free acid, read-out: Solubility in FaSSIF",0.072 mg/mL
same,solubility at 24 h,"[5]; fessif, room temperature, as free acid, read-out: Solubility in FeSSIF",0.676 mg/mL
same,solubility at 24 h,"[5]; isopropyl alcohol, organic solvent or mixture, isopropyl alcohol, room temperature, as free acid, read-out: Solubility in IPA",0.9 mg/mL
same,solubility at 24 h,"[5]; methanol, organic solvent or mixture, methanol, room temperature, as free acid, ≥ = did not reach saturation, read-out: Solubility in MeOH",5.9 mg/mL
same,solubility at 24 h,"[5]; water, room temperature, as free acid, ND = not detected, detection limit 0.7 μg/mL, read-out: Solubility in H2O",0.04 mg/mL
same,"% Impurities, Total","[6]; 2-8° C., 3 wk",3.2%
same,"% Impurities, Total","[6]; 2-8° C., 5 wk",2.4%
same,Overall physical and chemical stability (in words),"[6]; 2-8° C., 80° C.",physically and chemically stable
same,Overall physical and chemical stability (in words),"[6]; 2-8° C., 80° C., listed as lysine",relatively stable
same,"% Impurities, 25-HC","[6]; 2-8° C., 3 wk",0.3%
same,"% Impurities, 25-HC","[6]; 2-8° C., 5 wk",0.3%
same,"% Impurities, 25-HC","[6]; 80° C., 3 wk",0.3%
same,"% Impurities, 25-HC","[6]; 80° C., 5 wk",0.3%
same,Stressed stability at 80° C. (in words),[6]; 80° C.,"good, stressed stability"
same,"% Impurities, Total","[6]; 80° C., 3 wk",3.7%
same,Physical and chemical solid-state stability (comments),"[6]; 80° C., 5 weeks",Stable after 5 weeks at 80 °C physically and chemically.
same,"% Impurities, Total","[6]; 80° C., 5 wk",3.1%
same,remaining at 504 h,"[6]; solid state, 2-8° C., 3 wk, read-out: Assay",91.5%
same,remaining at 840 h,"[6]; solid state, 2-8° C., 5 wk, read-out: Assay",94.2%
same,remaining at 504 h,"[6]; solid state, 80° C., 3 wk, vs 2-8° C., read-out: % Recovery",101%
same,remaining at 504 h,"[6]; solid state, 80° C., 3 wk, read-out: Assay",92.8%
same,Stability after 5 weeks at 80° C. (in words),"[6]; solid state, 80° C., 5 weeks",stable
same,remaining at 840 h,"[6]; solid state, 80° C., 5 wk, read-out: % Recovery, 2-8° C./5 wk vs 80° C./5 wk",103%
same,remaining at 840 h,"[6]; solid state, 80° C., 5 wk, read-out: Assay",96.9%

# Source: US20260317367A1, “SALTS INCLUDING CRYSTALLINE SALTS OF 25-HYDROXY-CHOLEST-5-EN-3-SULFATE AND METHODS FOR PREPARING SAME” (Durect Corporation, priority 2022, published 2026)
